Reference: article PMC8242589, “Cardiac Safety of Kinase Inhibitors – Improving Understanding and Prediction of Liabilities in Drug Discovery Using Human Stem Cell-Derived Models” (Frontiers in Cardiovascular Medicine, 2021)
Entries after “also recorded” stand apart in the source; their conditions may differ. Blank lines part the entries; values can stand above or below the compound they belong to.

Legend:
[1] = test system: hSC-CMs (Cor.4U Cardiomyocytes); assay: ATP assay (CellTiter-Glo Luminescent Cell Viability Assay); type: cell-based, human; conditions: for viability at 0.03 µM / viability at 0.1 µM / viability at 0.3 µM / viability at 1 µM: Homo sapiens, Cardiomyocyte; for viability at 0.03 µM / viability at 0.1 µM / viability at 0.3 µM / viability at 1 µM / ATP: normalized to time-matched DMSO control; for Effect on ATP level, in words: hSC-CMs, up to the highest test concentrations
Procedure, shortened: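 Human stem-cell-derived Cor.4U cardiomyocytes (25,000–30,000/well), cultured 4 days at 37 °C, switched to serum-free BMCC medium 12 h before dosing. Cellular ATP quantified by CellTiter-Glo luminescence and normalized to time-matched DMSO controls; at least three replicates per concentration.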

[2] = test system: hSC-CMs (Cor.4U Cardiomyocytes); assay: CardioExcyte 96 impedance and EFP recording (beating rate, base impedance); type: cell-based, human; conditions: for activity at 0.03 µM / activity at 0.1 µM / activity at 0.3 µM / activity at 1 µM: Homo sapiens, Cardiomyocyte; for activity at 0.03 µM / activity at 0.1 µM / activity at 0.3 µM / activity at 1 µM / BR / Base Imp: vs baseline before drug (taken as 100%)
Procedure, shortened: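 hSC-CM monolayers (Cor.4U), cultured 4 days at 37 °C, 5% CO2, recorded spontaneously beating; impedance sampled at 1 kHz, EFP at 10 kHz. Beating rate taken as reciprocal of inter-spike interval in EFP. Each test concentration expressed as fractional change versus pre-drug baseline (100%).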

GSK-3α = conditions: ref [46] (CHIR99021), [47] (SB 216763); read-out: Target IC50 GSK-3α; cited from earlier work
[3] = test system: hSC-CMs (Cor.4U Cardiomyocytes); assay: Apoptosis assay (CellEvent Caspase-3/7 Green, IncuCyte ZOOM kinetics over 24 h); type: cell-based, human; parameters: key to Caspase / Caspase MEAN: % of time-matched vehicle control (green object area); conditions: for activity at 0.03 µM / activity at 0.1 µM / activity at 0.3 µM / activity at 1 µM: Homo sapiens, Cardiomyocyte; for activity at 0.03 µM / activity at 0.1 µM / activity at 0.3 µM / activity at 1 µM / Caspase: normalized to time-matched vehicle control; for Apoptosis (caspase-3/7 activation), result in words: monitored over 24 h
Procedure, shortened: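 Apoptosis was followed kinetically with a caspase-3/7 green fluorescent probe, imaging phase contrast and fluorescence every 2 h through 24 h compound exposure, after a 2 h baseline. Human stem cell-derived cardiomyocytes had been pre-cultured 4 days at 37 °C. Green object area per well was expressed relative to time-matched vehicle, with ≥3 replicates per concentration.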

ROCK2 = conditions: ref [36] (RKI-1447), [37], [38] (Fasudil), [39]–[43] (Y-27632), [44], [45] (GSK-429286); read-out: Target IC50 ROCK2; cited from earlier work
ROCK1 = conditions: ref [36] (RKI-1447), [37], [38] (Fasudil), [39]–[43] (Y-27632), [44], [45] (GSK-429286); read-out: Target IC50 ROCK1; cited from earlier work
[4] = 0.1 µM, 24h, read-out: Base Imp

Effect on cardiomyocyte function in 3D surface plots (beating rate, base impedance, ATP), in words ([2]; hSC-CMs, 2 and 24 h): minimal functional effect
Compound: Cc1c[nH]c(-c2cnc(NCCNc3ccc(C#N)cn3)nc2-c2ccc(Cl)cc2Cl)n1 [CHIR99021]
viability at 0.03 µM ([1]; 2h): 87% | viability at 0.03 µM ([1]; 24h): 97% | viability at 0.1 µM ([1]; 0.1 µM, 2h): 87% | viability at 0.1 µM ([1]; 0.1 µM, 24h): 95% | viability at 0.3 µM ([1]; 2h): 93% | viability at 0.3 µM ([1]; 24h): 92% | viability at 1 µM ([1]; 1 µM, 2h): 99% | viability at 1 µM ([1]; 1 µM, 24h): 97% | Effect on ATP level, in words [1]: did not impact the ATP level | activity at 0.03 µM ([2]; 2h, read-out: BR): 99% | activity at 0.03 µM ([2]; 2h, read-out: Base Imp): 96% | activity at 0.03 µM ([2]; 24h, read-out: BR): 95% | activity at 0.03 µM ([2]; 24h, read-out: Base Imp): 97% | activity at 0.1 µM ([2]; 0.1 µM, 2h, read-out: BR): 93% | activity at 0.1 µM ([2]; 0.1 µM, 2h, read-out: Base Imp): 93% | activity at 0.1 µM ([2]; 0.1 µM, 24h, read-out: BR): 92% | activity at 0.1 µM [2, 4]: 97% | activity at 0.3 µM ([2]; 2h, read-out: BR): 90% | activity at 0.3 µM ([2]; 2h, read-out: Base Imp): 94% | activity at 0.3 µM ([2]; 24h, read-out: BR): 92% | activity at 0.3 µM ([2]; 24h, read-out: Base Imp): 91% | activity at 1 µM ([2]; 1 µM, 2h, read-out: BR): 84% | activity at 1 µM ([2]; 1 µM, 2h, read-out: Base Imp): 90% | activity at 1 µM ([2]; 1 µM, 24h, read-out: BR): 93% | activity at 1 µM ([2]; 1 µM, 24h, read-out: Base Imp): 88% | Effect on hSC-CMs function (base impedance and beating rate), in words ([2]; hSC-CMs, 2 and 24 h): did not produce functionally relevant changes | IC50 (GSK-3α): 10 nM | activity at 0.03 µM ([3]; 2h): 160% | activity at 0.03 µM ([3]; 24h): 109% | activity at 0.1 µM ([3]; 0.1 µM, 2h): 143% | activity at 0.1 µM ([3]; 0.1 µM, 24h): 79% | activity at 0.3 µM ([3]; 2h): 132% | activity at 0.3 µM ([3]; 24h): 80% | activity at 1 µM ([3]; 1 µM, 2h): 122% | activity at 1 µM ([3]; 1 µM, 24h): 85% | Apoptosis (caspase-3/7 activation), result in words ([3]; hSC-CMs): did not have any functionally-relevant effect

Effect on cardiomyocyte function in 3D surface plots (beating rate, base impedance, ATP), in words ([2]; hSC-CMs, 2 and 24 h): minimal functional effect
Compound: Cn1cc(C2=C(c3ccc(Cl)cc3Cl)C(=O)NC2=O)c2ccccc21 [SB 216763]
viability at 0.03 µM ([1]; 2h): 88% | viability at 0.03 µM ([1]; 24h): 98% | viability at 0.1 µM ([1]; 0.1 µM, 2h): 88% | viability at 0.1 µM ([1]; 0.1 µM, 24h): 99% | viability at 0.3 µM ([1]; 2h): 91% | viability at 0.3 µM ([1]; 24h): 95% | viability at 1 µM ([1]; 1 µM, 2h): 97% | viability at 1 µM ([1]; 1 µM, 24h): 96% | Effect on ATP level, in words [1]: did not impact the ATP level | activity at 0.03 µM ([2]; 2h, read-out: BR): 98% | activity at 0.03 µM ([2]; 2h, read-out: Base Imp): 109% | activity at 0.03 µM ([2]; 24h, read-out: BR): 91% | activity at 0.03 µM ([2]; 24h, read-out: Base Imp): 108% | activity at 0.1 µM ([2]; 0.1 µM, 2h, read-out: BR): 88% | activity at 0.1 µM ([2]; 0.1 µM, 2h, read-out: Base Imp): 107% | activity at 0.1 µM ([2]; 0.1 µM, 24h, read-out: BR): 94% | activity at 0.1 µM [2, 4]: 107% | activity at 0.3 µM ([2]; 2h, read-out: BR): 97% | activity at 0.3 µM ([2]; 2h, read-out: Base Imp): 106% | activity at 0.3 µM ([2]; 24h, read-out: BR): 94% | activity at 0.3 µM ([2]; 24h, read-out: Base Imp): 102% | activity at 1 µM ([2]; 1 µM, 2h, read-out: BR): 85% | activity at 1 µM ([2]; 1 µM, 2h, read-out: Base Imp): 102% | activity at 1 µM ([2]; 1 µM, 24h, read-out: BR): 93% | activity at 1 µM ([2]; 1 µM, 24h, read-out: Base Imp): 105% | Effect on hSC-CMs function (base impedance and beating rate), in words ([2]; hSC-CMs, 2 and 24 h): did not produce functionally relevant changes | IC50 (GSK-3α): 34 nM | activity at 0.03 µM ([3]; 2h): 143% | activity at 0.03 µM ([3]; 24h): 92% | activity at 0.1 µM ([3]; 0.1 µM, 2h): 174% | activity at 0.1 µM ([3]; 0.1 µM, 24h): 132% | activity at 0.3 µM ([3]; 2h): 256% | activity at 0.3 µM ([3]; 24h): 265% | activity at 1 µM ([3]; 1 µM, 2h): 326% | activity at 1 µM ([3]; 1 µM, 24h): 352% | Time to plateau of caspase-3/7 activation ([3]; hSC-CMs): within the first hour | Apoptosis (caspase-3/7 activation), result in words ([3]; hSC-CMs): quickly induced a concentration-dependent caspase−3/7 activation

Compound: CC1=C(C(=O)Nc2cc3cn[nH]c3cc2F)C(c2ccc(C(F)(F)F)cc2)CC(=O)N1 (stereo not drawn) [GSK-429286]
ATP ([1]; 0.01 µM, 2h): 101 | ATP ([1]; 0.01 µM, 24h): 101 | ATP ([1]; 0.1 µM, 2h): 101 | ATP ([1]; 0.1 µM, 24h): 96 | ATP ([1]; 1 µM, 2h): 102 | ATP ([1]; 1 µM, 24h): 96 | ATP ([1]; 10 µM, 2h): 104 | ATP ([1]; 10 µM, 24h): 102 | BR ([2]; 0.01 µM, 2h): 102 | Base Imp ([2]; 0.01 µM, 2h): 99 | BR ([2]; 0.01 µM, 24h): 100 | Base Imp ([2]; 0.01 µM, 24h): 92 | BR ([2]; 0.1 µM, 2h): 102 | Base Imp ([2]; 0.1 µM, 2h): 91 | BR ([2]; 0.1 µM, 24h): 106 | Base Imp ([2]; 0.1 µM, 24h): 85 | BR ([2]; 1 µM, 2h): 105 | Base Imp ([2]; 1 µM, 2h): 83 | BR ([2]; 1 µM, 24h): 109 | Base Imp ([2]; 1 µM, 24h): 72 | BR ([2]; 10 µM, 2h): 98 | Base Imp ([2]; 10 µM, 2h): 69 | BR ([2]; 10 µM, 24h): 88 | Base Imp ([2]; 10 µM, 24h): 58 | Effect on base impedance, in words ([2]; hSC-CMs, 2 and 24 h): concentration-and time-dependent decrease in base impedance; also recorded: concentration-dependent effects | IC50 (ROCK2): 63 nM | IC50 (ROCK1): 14 nM | Caspase ([3]; 0.01 µM, 2h): 95 | Caspase ([3]; 0.01 µM, 24h): 97 | Caspase ([3]; 0.1 µM, 2h): 109 | Caspase ([3]; 0.1 µM, 24h): 103 | Caspase ([3]; 1 µM, 2h): 104 | Caspase ([3]; 1 µM, 24h): 105 | Caspase ([3]; 10 µM, 2h): 116 | Caspase ([3]; 10 µM, 24h): 127 | Apoptosis (caspase-3/7 activity) at the highest test concentration, in words ([3]; top / highest test concentration, over 24 h): marginal effects
